Here are results for three molecules from patent US20130280269A1, “Manipulation of HSP70 and IRE1Alpha Protein Interactions” (National University of Ireland, priority 2010, published 2013).

Assay [1] relates to PC12 cells. Nature of the assay: Loss of mitochondrial membrane potential (ΔΨm), TMRE staining and flow cytometry. Conditions: 48 h, thapsigargin 0.25 μM. Type of assay: cell-based, Rat. How it is done: (§1) FIG. 2. Hsp72 prevents ER stress-induced loss of mitochondrial membrane potential and cytochrome c release. (A) The control (Neo) and Hsp72 expressing (Hsp72) PC12 cells were either untreated (Control) or treated with (0.25 μM) Tg for the indicated time and mitochondrial membrane potential was assessed by TRME staining and flow cytometry. A representative image of three independent experiments is shown. (B) The control (Neo) and Hsp72 expressing (Hsp72) PC12 cells were treated (0.25 μM) Tg for indicated time points. Following treatment cells were incubated with TMRE (100 nM). Mitochondrial membrane potential was monitored by measuring the fluorescence intensity at 582 nm (FL2). Average and error bars represent mean±SD from three independent experiments. (C) The control (Neo) and Hsp72 expressing (Hsp72) PC12 cells were treated with (0.25 μM) Tg for the indicated time. Cytosolic extracts were prepared as described in materials and methods and resolved by SDS-PAGE followed by western blotting using antibodies against Cytochrome c and β-actin.
The effect of Hsp72 on the dissipation of ΔΨm and release of cytochrome c to the cytosol upon exposure to ER stress stimuli was evaluated. To quantify ΔΨm, probe tetramethylrhodamine ethyl ester (TMRE, Molecular Probes), a potentiometric fluorescent dye that incorporates into mitochondria in a ΔΨm-dependent manner, was used. Cells were trypsinized and then were either left untreated or treated with 0.25 μM thapsigargin. The cells were then incubated with TMRE for 30 min in the dark and analyzed by flow cytometry using a FACSCalibur instrument. […] The expression of Hsp72 inhibited the loss of ΔΨm (FIG. 2A). At 48 h, loss of ΔΨm was detected in 80-90% of Neo cells treated with thapsigargin or tunicamycin, respectively (FIG. 2B).
On the technique in general: Flow cytometry measures light scatter and fluorescence of single cells or particles in a stream.

Assay [2] concerns PC12 cells. As to the kind of experiment: Release of cytochrome c into the cytosol, western blot of cytosolic extracts. The following applies: 0.25 μM Tg, 24 h. It counts as cell-based, Rat. How it is done: as §1
To further study the involvement of mitochondria in ER stress-induced cell death, the release of cytochrome c into the cytosol was assessed. […]
(In general: Immunoblotting shows a protein as a band on a membrane.)

In assay [3] the target is T1, wild-type Hsp72 (inducible form of Hsp70), stably expressed in PC12 cells (Homo sapiens (Human), UniProt P0DMV8 2-641, limits assumed).
T1 construct: Expressed from a plasmid (gift of Dr. Tomomi Gotoh) in rat PC12 cells and tested in cell lysates by co-immunoprecipitation; also called Hsp72 WT; inducible Hsp70
T1 sequence (P0DMV8 2-641 limits assumed): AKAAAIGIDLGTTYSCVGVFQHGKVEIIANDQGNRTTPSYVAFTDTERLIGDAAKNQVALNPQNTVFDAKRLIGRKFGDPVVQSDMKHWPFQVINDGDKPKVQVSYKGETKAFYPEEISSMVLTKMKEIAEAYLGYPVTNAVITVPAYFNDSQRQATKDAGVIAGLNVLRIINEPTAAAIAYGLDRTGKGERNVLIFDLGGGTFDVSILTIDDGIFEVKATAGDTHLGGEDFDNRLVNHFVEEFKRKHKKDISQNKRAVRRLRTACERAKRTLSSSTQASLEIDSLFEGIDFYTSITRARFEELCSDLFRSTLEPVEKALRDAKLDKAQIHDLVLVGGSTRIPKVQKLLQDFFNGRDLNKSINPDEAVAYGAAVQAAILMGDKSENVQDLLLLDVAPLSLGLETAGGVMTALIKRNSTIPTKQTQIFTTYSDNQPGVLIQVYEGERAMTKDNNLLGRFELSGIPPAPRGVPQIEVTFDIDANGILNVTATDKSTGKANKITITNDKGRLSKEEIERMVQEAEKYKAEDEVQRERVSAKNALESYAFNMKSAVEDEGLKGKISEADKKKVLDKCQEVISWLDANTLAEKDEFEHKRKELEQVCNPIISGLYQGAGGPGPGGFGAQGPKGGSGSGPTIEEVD
As to the kind of experiment: co-immunoprecipitation with HA-agarose from Hsp72-expressing PC12 cells, western blot (FIG. 5C). How it is done: FIG. 5. Hsp72 forms a protein complex with IRE1α, and ATPase domain of HSP72 is critical for IRE1α binding. (A) Schematic diagram for IRE1α structure domains and expression constructs. (B) Schematic diagram for Hsp72 structure domains and expression constructs. (C) Hsp72 expressing PC12 cells (Hsp2) were transfected with empty vector (EV) or expression vectors for IRE1α FL-HA or IRE1α ΔC-HA. After 24 h, cells were either left untreated (UT) or treated with (0.25 μM) Tg for 12 h and then the co-precipitation of Hsp72 with IRE1α FL-HA or IRE1α ΔC-HA was evaluated by IP and western blot. (D) PC12 cells expressing the indicated Hsp72 constructs were transfected with IRE1α FL-HA. […] Co-precipitation of wild-type, ΔATPase and ΔEEVD mutant of Hsp72 with IRE1α FL-HA was evaluated by IP and western blot. […] After 48 hr, IRE1α FL-HA was immunoprecipitated and its association with endogenous Hsp72 was assessed by western blot. (F) Endogenous Hsp72 was immunoprecipitated from HEK 293 cells transiently transfected with IRE1α FL-HA expression vector or empty vector (EV), and its association with IRE1α was determined by western blot analysis. […]
Interaction of Hsp72-IRE1α was determined by co-immunoprecipitation assays. […] Protein complexes were extracted by boiling the beads with 2× lane marker buffer and analysed by western blotting as described above using the primary antibody IRE1α (Cell Signalling Cat#3294S). […]

Turning to `C/C=C(/C)C(=O)O[C@H]1C(C)=C2[C@H]([C@@H]1OC(=O)CCCCCCC)[C@@](C)(OC(C)=O)C[C@H](OC(=O)CCC)[C@@]1(O)[C@H]2OC(=O)[C@@]1(C)O` [thapsigargin], the “loss of ΔΨm, cells” value in the assay with PC12 cells [1] (Hsp72 expressing PC12 cells) is 50%; in the assay on PC12 cells [1] (control (Neo) PC12 cells), 80%. Further, the “release of cytochrome c induced by thapsigargin” value in the assay with PC12 cells [2] (Hsp72 expressing PC12 cells, compared with Neo cells) is given as “significantly reduced”. Besides, the “release of cytochrome c from mitochondria to the cytoplasm” value in the assay with PC12 cells [2] (control (Neo) PC12 cells) is “triggered release of cytochrome c”.
Turning to tunicamycin, the figures for the “loss of ΔΨm, cells” value in the assay on PC12 cells [1] (Hsp72 expressing PC12 cells) and with PC12 cells [1] (control (Neo) PC12 cells) were 50% and 90%, respectively.

B1: IRE1α ΔC-HA (enzyme)
chain: IFGSTSTVTLPETLLFVSTLDGSLHAVSKRTGSIKWTLKEDPVLQVPTHVEEPAFLPDPNDGSLYTLGSKNNEGLTKLPFTIPELVQASPCRSSDGILYMGKKQDIWYVIDLLTGEKQQTLSSAFADSLCPSTSLLYLGRTEYTITMYDTKTRELRWNATYFDYAASLPEDDVDYKMSHFVSNGDGLVVTVDSESGDVLWIQNYASPVVAFYVWQREGLRKVMHINVAVETLRYLTFMSGEVGRITKWKYPFPKETEAKSKLTPTLYVGKYSTSLYASPSMVHEGVAVVPRGSTLPLLEGPQTDGVTIGDKGECVITPSTDVKFDPGLKSKNKLNYLRNYWLLIGHHETPLSASTKMLERFPNNLPKHRENVIPADSEKKSFEEVINLVDQTSENAPTTVSRDVEEKPAHAPARPEAPVDSMLKDMATIILSTFLLIGWVAFIITYPLSMHQQQQLQHQQFQKELEKIQLLQQQQQQLPFH
notes: HA-tagged IRE1α lacking the cytosolic C-terminal region; also called IRE1α DC-HA; not shown: HA tag
With B1, in assay [3], the binding result is “no binding”.
